Test results taken from article PMC5773487, “Harnessing insulin- and leptin-induced oxidation of PTP1B for therapeutic development” (Nature Communications, 2018).
Each block holds one molecule with its values, some of them ahead of it.

How the values were obtained:
PTP1B-OX [1] = molecular target: T1, PTP1B-OX (Homo sapiens, UniProt P18031); experiment: reduction and reactivation of reversibly oxidized PTP1B by TCEP, DiFMUP substrate; format: biochemical
T1 construct: Purified PTP1B (1–321) (100 nM) was mixed with increasing concentrations of H2O2; 6xHis (C); made in house; host or cells: E. coli BL21 (DE3)-RIL
T1 sequence (P18031 1-321): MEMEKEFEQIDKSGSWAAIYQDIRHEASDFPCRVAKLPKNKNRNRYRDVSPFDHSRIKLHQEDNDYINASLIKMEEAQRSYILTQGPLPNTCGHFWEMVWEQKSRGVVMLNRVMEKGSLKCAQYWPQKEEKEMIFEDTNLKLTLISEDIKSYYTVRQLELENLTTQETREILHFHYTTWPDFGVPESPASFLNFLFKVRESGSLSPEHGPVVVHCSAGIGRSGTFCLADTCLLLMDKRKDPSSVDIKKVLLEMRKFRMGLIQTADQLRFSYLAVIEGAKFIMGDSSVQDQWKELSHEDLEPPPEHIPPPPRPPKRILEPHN

PTP1B-OX [2] = molecular target: T1, PTP1B-OX; experiment: displacement assay of scFv antibodies from PTP1B-OX; format: binding; conditions: chelerythrine 0–20 μM
Description: To test whether there was overlap in the binding site for chelerythrine and scFv antibodies that stabilized PTP1B-OX, we performed an in vitro competition binding assay using purified components. […] We focused on scFv106 and scFv67. Purified PTP1B (50 nM) was reversibly oxidized with 250 µM H2O2 followed by a buffer exchange to remove excess H2O2. Increasing concentration of purified scFv antibody (0–10 µM) was incubated with oxidized proteins in binding buffer (20 mM HEPES pH 7.4, 300 mM NaCl, 0.05% BSA, 0.05% Tween-20) for 2 h at 4 °C. Anti-HA agarose (Roche, 50% slurry equilibrated in the binding buffer) was added and incubated for 1 h at 4 °C. Protein complexes bound to anti-HA beads were precipitated and washed three times; first with lysis buffer followed by two more washes with wash buffer (25 mM HEPES pH 7.4, 100 mM NaCl, 0.05% BSA, 0.05% Tween-20, and protease inhibitors). The protein complex was incubated with varying concentrations of chelerythrine (0–20 µM) for 2 h at 4 °C, following which the beads were washed as described above. The complexes were resolved by SDS-PAGE and analyzed by immunoblotting.

[3] = system: high fat diet-fed C57Bl6/J mice; experiment: body weight, glucose and insulin tolerance tests in diet-fed mice; format: in vivo; conditions: for glucose tolerance (GTT) / insulin sensitivity (ITT): HFD fed 14-week-old male mice; for glucose tolerance (GTT): D-glucose 2 mg g−1; for insulin sensitivity (ITT): insulin 0.75 mU g−1
Description: Animal experiments were performed according to protocols approved by the Institutional Animal Use and Care Committee of Cold Spring Harbor laboratory. Ten week-old male C57bl6/J mice fed chow diet or high fat diet (D12492) were acclimatized for 10 days under standard conditions before experiments. Mice were intraperitoneally (i.p.) injected once daily with vehicle, 3 mg kg^−1 of chelerythrine or 3 mg kg^−1 of protopine for 30 days. Mice were killed after 6 h of fasting, and serum samples were collected to measure the metabolic parameters and tissue samples were collected for studying changes in signaling. No animals were excluded from the analysis.
Glucose in tail blood was measured using a glucometer (One-Touch Basic; Lifescan, CA). For glucose tolerance tests (GTTs), mice were fasted for 10 h and then injected with 20% D-glucose (2 mg g^−1 body weight) and the blood glucose was monitored immediately before and at 15, 30, 60, and 120 min following the injection. For insulin tolerance tests (ITTs), 4 h fasted animals were given insulin (0.75 mU g^−1) and blood glucose was measured immediately before and at 30, 60, and 120 min post-injection. Statistical analysis was performed using ANOVA for both GTT and ITT.

PKC = conditions: called into question by refs 39, 40; cited from earlier work
[4] = molecular target: T2, PTP1B-OX : TRX1 trapping mutant complex (Homo sapiens, UniProt P18031); experiment: in vitro substrate trapping of PTP1B by thioredoxin trapping mutant; format: biochemical; conditions: chelerythrine 5 μM
T2 sequence (P18031 1-321 limits assumed): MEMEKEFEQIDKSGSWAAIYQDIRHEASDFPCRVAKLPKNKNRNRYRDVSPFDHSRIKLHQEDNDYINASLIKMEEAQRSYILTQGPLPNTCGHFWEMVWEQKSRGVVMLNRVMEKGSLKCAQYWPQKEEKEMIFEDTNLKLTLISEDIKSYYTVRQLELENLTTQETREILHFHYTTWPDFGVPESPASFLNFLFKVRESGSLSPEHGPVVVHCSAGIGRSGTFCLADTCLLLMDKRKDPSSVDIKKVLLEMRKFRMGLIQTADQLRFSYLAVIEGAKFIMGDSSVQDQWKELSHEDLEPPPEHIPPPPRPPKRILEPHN
Source text: Thioredoxin (TRX), which functions to reduce oxidized cysteines in target proteins, contains an essential CXXC motif, in which the first cysteine forms a mixed disulfide intermediate with an oxidized cysteine in the target protein. The second cysteine then serves a “resolving” function—it forms a disulfide bond with the first cysteine in the CXXC motif, with the resulting transfer of electrons leading to reduction of the target protein. We utilized an assay using a “trapping mutant” form of thioredoxin in which the second cysteine is mutated to serine, which stabilizes the mixed disulfide intermediate with the target substrate.
Recombinant variants of N-terminally His-tagged human TRX1 (0.1 mg, WT, and trapping mutant, C35S) were reduced with 20 mM DTT in 1 mL PBS on ice for 30 min, then desalted on a Sephadex PD-10 column. Ten μg each of TRX1-WT and TRX1-C35S proteins was used in the trapping experiment. PTP1B (40 μg ml^−1) was incubated with H2O2 (0, 0.1 and 0.5 mM) for 10 min at room temperature and excess H2O2 was removed by desalting. Reduced and oxidized forms of PTP1B (20 μg) were incubated with WT or trapping mutant TRX1 for 20 min at room temperature in the absence and presence of chelerythrine (5 μM) in 1 mL PBS. Ni-NTA beads were added and incubated for 1 h at 4 °C. […]

reduced form of PTP1B = system: reduced form of PTP1B; parameters: method as in PMID 21962515; conditions: cited from earlier work

Molecule: COc1ccc2c(c[n+](C)c3c4cc5c(cc4ccc23)OCO5)c1OC [chelerythrine]
reversibility of PTP1B-OX inhibition (PTP1B-OX [1]; complex diluted 100-fold, activity monitored 120 min): reversible
competition with scFv106 for binding to PTP1B-OX (PTP1B-OX [2]): competed
glucose tolerance (GTT) [3]: improved
insulin sensitivity (ITT) [3]: improved
change in body weight, chow diet ([3]; chow diet-fed mice, 3 mg kg−1 i.p. once daily): no significant change
decrease in body weight ([3]; high fat diet-fed mice, 3 mg kg−1 i.p. once daily): ~ 3%
inhibition of PKC (PKC): inhibitor of PKC
complex formation between PTP1B-OX and thioredoxin substrate trapping mutant [4]: did not prevent complex formation

Molecule: CN1CCc2cc3c(cc2C(=O)Cc2ccc4c(c2C1)OCO4)OCO3 [protopine]
weight loss in high fat diet-fed mice ([3]; 3 mg kg−1 i.p. once daily, in words): not observed
glucose tolerance (GTT) [3]: did not improve
insulin sensitivity (ITT) [3]: did not improve

Ki (PTP1B-OX [1]; intrabodies, phosphatase activity, read-out: Ki against oxidized PTP1B-wt): 10 nM
B1: scFv45: recombinant conformation-sensor single-chain variable fragment antibody recognizing oxidized PTP1B (antibody, V domains shown)
VH: TVTLDESGGGLQAPGGALSLVCKASGFTFSSYDMGWIRQAPGKGLEYVAGITDNGRYASYGSAVDGRATISRDNGQSSVRLQLNNLRAEDTGTYYCARDDGSGWTGNSIDAWGHGTEVIVSE
VL: ALTQPSSVSANPGGTVKITCSGSSSAYGYGWYQQKSPGSAPVTVIYNNNKRPSNIPSRFSGSKSGSTGTLTITGVQAEDEAVYFCGSEDSSTDAIFGAGTTLTVL
binding to the reduced form of PTP1B (reduced form of PTP1B): did not bind
